{
  "source": "patent US20060128660A1",
  "about": "“FK228 analogs and methods of making and using the same” (Wisconsin Alumni Research Foundation, priority 2004, published 2006)",
  "key": {"Trx": {"system": "Trx", "conditions": "human primary breast and colon tumor tissues, Butler et al. 2002; cited from earlier work"}, "HDAC": {"system": "HDAC", "experiment": "Western blot analysis of histones (tetra-AcLys H4) isolated from treated Drosophila S2 cells", "format": "cell-based", "protocol": "Drosophila S2 cells can be cultured in Schneider's medium and grown as previously described by Wade and co-workers for periods ranging from 12 h to 96 h (Ballestar et al., 2001, Eur. J. Biochem. 268: 5397-5406). Cells may then be lysed and nuclear extracts prepared according to Thompson and co-workers (Steffan, 2001, Nature 413: 739-743). Lysates are then be subjected to differing concentrations of HDAC inhibitors and/or reductants (Barlow et al., 2001, Exp. Cell Res. 265: 90-103).\nH2B detection was used to ensure equivalent protein loading to each well. […] Cells in all reactions were incubated at ambient temperature in media that contained 20 μM of each respective synthetic agent. Incubations were conducted for either 48 or 72 hours prior to nuclei isolation and processing.\nH2B detection was used to ensure equivalent protein loading to each well. […] Lane 1 is a dioxane solvent control and concentrations of “drug” in cell medium are indicated above each lane. All cells were treated for a period of 48 hours at ambient temperature prior to nuclei isolation and processing.\nBriefly, 2×10^6 cells in 10 mL medium are brought to 2×10^−5 M in synthetic intermediate and then allowed to incubate at ambient temperature for specified times. […] Histone H2B was detected in each case in order to verify equal protein loadings for each lane."}},
  "data": [
    {"smiles": "O=C(CCCCCCC(=O)Nc1ccccc1)NO", "note": "[SAHA]", "values": [
      {"measurement": "effect on Trx", "setting": "Trx", "result": "down regulates Trx"}
    ]},
    {"smiles": "O=C(CCCCCS)NC(CO)CSCc1ccccc1", "note": "(stereo not drawn) [compound 33]", "values": [
      {"measurement": "acetylated H4 in histones isolated from treated cells (Western blot)", "setting": "HDAC; 20 μM, 48 or 72 hours, ambient temperature (FIG. 3A)", "result": "a significant amount of acetylated H4"},
      {"measurement": "cellular HDAC inhibition (Western blot data)", "setting": "HDAC; at −20 μM concentration", "result": "potent cellular HDAC inhibitors"}
    ]}
  ]
}
